According to patent US9056847B2, “Activity based probes (ABPs) interacting with glycosidases” (ACADEMISCH MEDISCH CENTRUM BIJ UNIVERSITEIT VAN AMSTERDAM, priority 2010, dated 2015):
Like-named read-outs stand apart in the source and are kept apart here.

What was measured:
GBA [1] = molecular target: T1, GBA (Homo sapiens (Human), UniProt P04062, R534H); experiment: GBA enzyme activity assay with 4-methylumbelliferyl β-D-glucopyranoside, inhibitor preincubated 30 min (apparent IC50); assay type: biochemical
T1 sequence (P04062 40-536 R534H): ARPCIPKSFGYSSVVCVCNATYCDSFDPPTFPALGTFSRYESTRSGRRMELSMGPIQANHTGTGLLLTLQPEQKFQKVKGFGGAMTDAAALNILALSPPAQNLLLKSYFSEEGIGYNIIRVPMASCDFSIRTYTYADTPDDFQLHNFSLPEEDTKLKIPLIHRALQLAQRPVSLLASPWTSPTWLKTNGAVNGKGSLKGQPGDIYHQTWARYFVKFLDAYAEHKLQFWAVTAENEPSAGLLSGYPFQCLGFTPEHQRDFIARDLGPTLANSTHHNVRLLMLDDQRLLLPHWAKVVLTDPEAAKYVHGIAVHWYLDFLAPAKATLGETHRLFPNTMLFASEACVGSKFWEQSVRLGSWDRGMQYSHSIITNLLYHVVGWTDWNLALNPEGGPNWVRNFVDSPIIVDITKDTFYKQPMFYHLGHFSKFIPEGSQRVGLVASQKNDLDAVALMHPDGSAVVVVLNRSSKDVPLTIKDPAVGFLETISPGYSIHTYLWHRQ

GBA [2] = molecular target: T2, GBA (Mus musculus (Mouse), UniProt P17439); experiment: Labeling specificity in cell homogenates (SDS-PAGE, fluorescence scanning); conditions: 100 nM, 30 min, 37° C., homogenates of cultured RAW cells
Target sequence in this assay (P17439 20-515 limits assumed): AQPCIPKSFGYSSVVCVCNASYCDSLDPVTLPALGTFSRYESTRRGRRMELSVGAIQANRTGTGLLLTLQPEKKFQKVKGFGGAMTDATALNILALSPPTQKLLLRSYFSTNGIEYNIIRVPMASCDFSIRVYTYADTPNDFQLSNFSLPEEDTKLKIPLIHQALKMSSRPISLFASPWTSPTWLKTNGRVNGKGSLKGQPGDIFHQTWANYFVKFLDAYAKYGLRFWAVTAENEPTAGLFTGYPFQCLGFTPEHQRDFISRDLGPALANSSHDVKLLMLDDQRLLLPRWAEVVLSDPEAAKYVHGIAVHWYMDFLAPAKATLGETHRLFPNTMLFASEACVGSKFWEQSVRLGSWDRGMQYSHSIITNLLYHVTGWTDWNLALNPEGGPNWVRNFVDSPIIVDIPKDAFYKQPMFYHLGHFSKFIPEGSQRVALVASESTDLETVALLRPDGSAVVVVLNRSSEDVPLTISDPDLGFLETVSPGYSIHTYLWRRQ

glucocerebrosidase = glucocerebrosidase (Homo sapiens (Human), UniProt P04062); experiment: In situ inhibition of glucocerebrosidase in cells at 18° C. and 37° C.; assay type: cell-based; conditions: 10 nM, 2 hours
Chain of glucocerebrosidase (P04062 40-536): as the sequence (P04062 40-536 R534H) above, with H495R counted along it
From the text: To identify the mechanism of entry of the probes, we performed a temperature experiment. […] We harvested the cells and determined the residual activity using a fluorogenic substrate assay. […] We therefore exclude that the uptake is solely by endocytosis.

GBA [3] = molecular target: T1, GBA; experiment: Continuous substrate release assay for inhibition constants; assay type: biochemical
From the text: Previously discontinuous methods have been used to determine the inhibition constants of glycosidase inhibitors. […] Therefore the inhibition constants have been determined in a continuous substrate assay which was first described in 1982 (2) and has recently been reappraised in 2010 (3). In these experiments, inhibition of the enzyme and hydrolysis of the substrate proceed concurrently making the situation slightly more complex than the discontinuous (FIG. 39 Scheme 2). The time-dependent interaction of inhibitor (I) with free β-glucosidase (E) was considered to occur in separate stages (A). A rapid reversible interaction is followed by a slower, irreversible reaction that transforms the reversible enzyme-inhibitor complex (EI) into an irreversible enzyme-inhibitor complex (EI*) (FIG. 39 Scheme 2). Progress curves were obtained (FIG. 28a) and apparent rate constant k′ was plotted versus the concentration (FIG. 28b) to obtain estimates of the Ki (equilibrium constant) and ki (rate constant)
To 100 μL McIlvaine buffer (pH 5.2, 0.2% sodium taurocholate, 0.1% Triton X-100) containing 4-methylumbelliferyl β-D-glucoside (7.5 mM) in Greiner flat bottom black 96-well plate was added 5 μL inhibitor (25× stock in DMSO). The resulting mixture was preincubated at 37° C. for 15 min in a TECAN GENios microplate reader. GBA (2 ng) in McIlvaine buffer (20 μL pH 5.2, 0.2% sodium taurocholate, 0.1% Triton X-100) was preheated to 37° C. for 15 min before being added to the substrate mix. The resulting solution was mixed by horizontal shaking for 15 sec, after which release 4-methylumbelliferyl measured with a TECAN GENios platereader (λex 340 nm and λem 465 nm) for the indicated time. Bleaching of the fluorophore, which was observed during the assay, was corrected by subtracting blanks (100 μL substrate buffer, 5 μL DMSO, 20 μL McIlvaine buffer). Apparent rate constants k′ were obtained by fitting the resulting progress curves (FIG. 28A) to the one-phase association equitation y (y max y0)(1−exp^−kt)yo+in GraphPad Prism version 5.00 for Windows, GraphPad Software, San Diego Calif. USA, www.graphpad.com. Measurements were performed in nine fold and plotting of the obtained k′ values versus [^I0] yielded rectangular hyperbolar functions (FIG. 28B).
[formula] estimates of Ki app and ki were obtained. The Ki value in the absence of substrate was obtained by correcting the Ki app with […]

GBA1 [4] = molecular target: GBA1 (Homo sapiens (Human), UniProt P04062); experiment: Kinetic constants of GBA1 inhibition (Table 2); assay type: biochemical; conditions: Table 2 kinetic constants
Chain of GBA1 (Homo sapiens (Human), UniProt P04062) (P04062 40-536): as the sequence (P04062 40-536 R534H) above, with H495R counted along it

GBA1 [5] = molecular target: GBA1 (Homo sapiens (Human), UniProt P04062, N370S); experiment: In situ labeling of GBA1 in Gaucher (N370S) fibroblasts; assay type: cell-based; conditions: 20 nM for 1 hour, N370S GBA1 homozygote fibroblasts
Chain of GBA1 (Homo sapiens (Human), UniProt P04062, N370S) (P04062 40-536 N409S): as the sequence (P04062 40-536 R534H) above, with N370S, H495R counted along it
Protocol: FIG. 20 presents a schematic illustration of Gaucher treatment (FIG. 20a) via the chaperone isofagimine, whose structure is separately shown in FIG. 20b. […] The fibroblasts were labeled with Fluorophore 1-cyclophellitol (for example 20 nM for 1 hour), wherein about 50% of cellular GBA1 was labeled.

GBA [6] = molecular target: T2, GBA; experiment: Labeling of GBA in live mice; assay type: in vivo; conditions: 0.1 nmol intravenously, 2 h
Protocol: We next studied the labeling of GBA by MDW941 in intact fibroblasts using time-lapse microscopy. […] As a control, matched mice received the buffer solution intravenously. […] In addition to GBA, MDW933 clearly labeled other proteins that occur in the intestine in the mouse.
Experimental procedures were all approved by the appropriate ethics committee for animal experiments. C57BI/6J mice were obtained from Harlan and fed a commercially available lab diet (RMH-B; Hope Farms). […] After 2 h of administration the mice were anesthetized with FFM mix (1 ml of fentanylcitrate, 1 ml of midazalam and 2 ml of distilled water), and blood, urine and organs were collected and directly frozen in liquid nitrogen. […] Homogenates were analyzed as described above.
Target sequence in this assay (P17439 20-515): as the sequence (P17439 20-515 limits assumed) above

GBA [7] = molecular target: T1, GBA; experiment: Sensitivity of detection of ABP-labeled GBA on slab gel by fluorescence scanning
Protocol: After the incubation, we resolved the protein preparations with SDS-PAGE and analyzed the labeled proteins by fluorescence scanning of the slab gel on a Typhoon Variable Mode Imager (FIG. 24a). Labeled recombinant GBA migrated at the expected mass of 57 kDa. […] We could detect as little as 20 attomol GBA by fluorescence scanning. […] Apparently, nearly all of the probe had been covalently bound to recombinant GBA, consistent with its high affinity for binding.

[8] = system: lactase (lactase-phloridzin hydrolase: LPH); experiment: Lactase activity inhibition (liberated glucose); conditions: incubation for 30 min with 1 mM

IC50 (GBA [1]; FIG. 16, ABPs designed for GBA1, read-out: IC50): 2 nM
IC50 (GBA [1]; rec. GBA1, 30 min, 37 C., pH 5.2 + Tch, Tr, read-out: Apparent IC50 (nM) rec. GBA1: 30 min, 37 C., pH 5.2 + Tch, Tr): 2 ± 0.5 nM
IC50 (GBA [1]; recombinant GBA, read-out: apparent half-maximal inhibitory concentration (IC50)): 1.24 ± 0.04 nM
labeling specificity (GBA [2]): exclusive labeling of GBA
Ki (GBA [3]; equilibrium constant for initial binding, reported with s.e.m.): 7 ± 2 nM
ki (GBA [3]; rate constant, reported with s.e.m.): 0.127 ± 0.024 min⁻¹
ki/Ki (GBA [3]; relative rate constant): 296000 M⁻¹ s⁻¹
Ki (GBA1 [4]): 0.95 nM
ki (GBA1 [4]): 0.0236 min⁻¹
cellular GBA1 labeled (GBA1 [5]): about 50%
in vivo labeling of GBA in brain (GBA [6]; brain): almost no GBA
in vivo labeling of GBA in most tissues (GBA [6]; lung and liver): a considerable proportion of GBA
amount of labeled GBA detectable by fluorescence scanning (GBA [7]; 2 pmol GBA with excess probe, 1 h, 37° C., titration on gel): 20 attomol
amount of probe resulting in detectable GBA on slab gel (GBA [7]; 2 pmol GBA, 30 min): 20 attomol
amount of GBA1 detected on slab gel (GBA [7]; ABP-labeled GBA1): 10 attomole
inhibition of lactase activity [8]: ~90%
Compound: CC1=CC(C)=[N+]2C1=C(CCCCc1cn(C[C@@H]3[C@@H](O)[C@H](O)[C@@H](O)[C@@H]4O[C@H]34)nn1)c1c(C)cc(C)n1[B-]2(F)F [MDW933]
in situ glucocerebrosidase activity (glucocerebrosidase): blocked glucocerebrosidase activity in situ
